Where “and” joins values, the source holds several entries; their conditions need not be identical. Identical values can stand only once.
Conditions: Liquid, Pycnometric method

FC(F)C(F)(F)OCC(F)(F)F [2,2,2-trifluoroethyl 1,1,2,2-tetrafluoroethyl ether]
Conditions | mass density
342.15 K, 16809 kPa | 1418.3 kg/m3
342.15 K, 16812 kPa | 1418.3 kg/m3
343.15 K, 17505 kPa | 1418.1 kg/m3
343.15 K, 17508 kPa | 1418.1 kg/m3
344.15 K, 18201 kPa | 1418 kg/m3
344.15 K, 18203 kPa | 1418 kg/m3
345.15 K, 18896 kPa | 1417.8 kg/m3
345.15 K, 18898 kPa | 1417.8 kg/m3
346.15 K, 19590 kPa | 1417.7 kg/m3
346.15 K, 19592 kPa | 1417.7 kg/m3
347.15 K, 20282 kPa | 1417.5 kg/m3
347.15 K, 20287 kPa | 1417.6 kg/m3
348.15 K, 20974 kPa | 1417.4 kg/m3
348.15 K, 20978 kPa | 1417.4 kg/m3
349.15 K, 21666 kPa | 1417.3 kg/m3
349.15 K, 21671 kPa | 1417.3 kg/m3
350.15 K, 22357 kPa | 1417.1 kg/m3
350.15 K, 22360 kPa | 1417.2 kg/m3
351.15 K, 23047 kPa | 1417 kg/m3
351.15 K, 23050 kPa | 1417 kg/m3
352.15 K, 23735 kPa | 1416.9 kg/m3
352.15 K, 23739 kPa | 1416.9 kg/m3
353.15 K, 24423 kPa | 1416.8 kg/m3
353.15 K, 24426 kPa | 1416.8 kg/m3
354.15 K, 25110 kPa | 1416.6 kg/m3
354.15 K, 25114 kPa | 1416.7 kg/m3
355.15 K, 25797 kPa | 1416.5 kg/m3
355.15 K, 25801 kPa | 1416.5 kg/m3
356.15 K, 26482 kPa | 1416.4 kg/m3
356.15 K, 26486 kPa | 1416.4 kg/m3
357.15 K, 27166 kPa | 1416.3 kg/m3
357.15 K, 27171 kPa | 1416.3 kg/m3
358.15 K, 27851 kPa | 1416.2 kg/m3
358.15 K, 27855 kPa | 1416.2 kg/m3
359.15 K, 5632 kPa | 1334.4 kg/m3
359.15 K, 5637 kPa | 1334.4 kg/m3
359.15 K, 28535 kPa | 1416.1 kg/m3
359.15 K, 28538 kPa | 1416.1 kg/m3
360.15 K, 6174 kPa | 1334.2 kg/m3
360.15 K, 6180 kPa | 1334.2 kg/m3
360.15 K, 29217 kPa | 1415.9 kg/m3
360.15 K, 29220 kPa | 1416 kg/m3
361.15 K, 6718 kPa | 1334.1 kg/m3
361.15 K, 6724 kPa | 1334.1 kg/m3
361.15 K, 29899 kPa | 1415.8 kg/m3
361.15 K, 29902 kPa | 1415.9 kg/m3
362.15 K, 7261 kPa | 1333.9 kg/m3
362.15 K, 7266 kPa | 1333.9 kg/m3
363.15 K, 7803 kPa | 1333.8 kg/m3
363.15 K, 7809 kPa | 1333.8 kg/m3
364.15 K, 8346 kPa | 1333.6 kg/m3
364.15 K, 8350 kPa | 1333.6 kg/m3
365.15 K, 8888 kPa | 1333.5 kg/m3
365.15 K, 8892 kPa | 1333.5 kg/m3
366.15 K, 9430 kPa | 1333.3 kg/m3
366.15 K, 9434 kPa | 1333.4 kg/m3
367.15 K, 9971 kPa | 1333.2 kg/m3
367.15 K, 9976 kPa | 1333.2 kg/m3
368.15 K, 10512 kPa | 1333.1 kg/m3
368.15 K, 10516 kPa | 1333.1 kg/m3
369.15 K, 11053 kPa | 1332.9 kg/m3
369.15 K, 11057 kPa | 1332.9 kg/m3
370.15 K, 11593 kPa | 1332.8 kg/m3
370.15 K, 11598 kPa | 1332.8 kg/m3
371.15 K, 12133 kPa | 1332.7 kg/m3
371.15 K, 12137 kPa | 1332.7 kg/m3
372.15 K, 12673 kPa | 1332.5 kg/m3
372.15 K, 12677 kPa | 1332.6 kg/m3
373.15 K, 13212 kPa | 1332.4 kg/m3
373.15 K, 13216 kPa | 1332.4 kg/m3
374.15 K, 13752 kPa | 1332.3 kg/m3
374.15 K, 13756 kPa | 1332.3 kg/m3
375.15 K, 14290 kPa | 1332.2 kg/m3
375.15 K, 14294 kPa | 1332.2 kg/m3
376.15 K, 14828 kPa | 1332 kg/m3
376.15 K, 14831 kPa | 1332 kg/m3
377.15 K, 15366 kPa | 1331.9 kg/m3
377.15 K, 15369 kPa | 1331.9 kg/m3
378.15 K, 15904 kPa | 1331.8 kg/m3
378.15 K, 15906 kPa | 1331.8 kg/m3
379.15 K, 16441 kPa | 1331.7 kg/m3
379.15 K, 16443 kPa | 1331.7 kg/m3
380.15 K, 16977 kPa | 1331.5 kg/m3
380.15 K, 16980 kPa | 1331.5 kg/m3
381.15 K, 17514 kPa | 1331.4 kg/m3
381.15 K, 17515 kPa | 1331.4 kg/m3
382.15 K, 18050 kPa | 1331.3 kg/m3
382.15 K, 18051 kPa | 1331.3 kg/m3
383.15 K, 18585 kPa | 1331.2 kg/m3
383.15 K, 18586 kPa | 1331.2 kg/m3
384.15 K, 19120 kPa | 1331.1 kg/m3
384.15 K, 19121 kPa | 1331.1 kg/m3
385.15 K, 19655 kPa | 1330.9 kg/m3
385.15 K, 19656 kPa | 1330.9 kg/m3
386.15 K, 20189 kPa | 1330.8 kg/m3
387.15 K, 20723 kPa | 1330.7 kg/m3
388.15 K, 21256 kPa | 1330.6 kg/m3
389.15 K, 21789 kPa | 1330.5 kg/m3
390.15 K, 22322 kPa | 1330.4 kg/m3
391.15 K, 22854 kPa | 1330.3 kg/m3
391.15 K, 22855 kPa | 1330.3 kg/m3
392.15 K, 23385 kPa | 1330.2 kg/m3
392.15 K, 23386 kPa | 1330.2 kg/m3
393.15 K, 23917 kPa | 1330 kg/m3 and 1330.1 kg/m3
394.15 K, 24448 kPa | 1329.9 kg/m3
395.15 K, 24978 kPa | 1329.8 kg/m3
396.15 K, 25507 kPa | 1329.7 kg/m3
396.15 K, 25508 kPa | 1329.7 kg/m3
397.15 K, 26037 kPa | 1329.6 kg/m3
397.15 K, 26038 kPa | 1329.6 kg/m3
398.15 K, 26566 kPa | 1329.5 kg/m3
398.15 K, 26567 kPa | 1329.5 kg/m3
399.15 K, 27094 kPa | 1329.4 kg/m3
399.15 K, 27096 kPa | 1329.4 kg/m3
400.15 K, 27622 kPa | 1329.3 kg/m3
400.15 K, 27623 kPa | 1329.3 kg/m3
401.15 K, 28150 kPa | 1329.2 kg/m3
401.15 K, 28151 kPa | 1329.2 kg/m3
402.15 K, 28677 kPa | 1329.1 kg/m3
402.15 K, 28678 kPa | 1329.2 kg/m3
403.15 K, 29204 kPa | 1329 kg/m3
403.15 K, 29205 kPa | 1329.1 kg/m3
404.15 K, 29730 kPa | 1329 kg/m3
404.15 K, 29732 kPa | 1329 kg/m3
